Laboratory results: paper PMC10257182, “Discovery of senolytics using machine learning” (Nature Communications, 2023)
“And” between values parts separate entries of the source, which are not always exact repeats. Equal entries are not always repeated. Where two headings read alike, the source gives them in different places.

Assays:
Assay type in all cases: cell-based, human
[1] = system: A549 cells treated with 100 μM etoposide; assay: Cell survival assay using crystal violet staining, TIS, senescent cells; details: for % Cell Survival: Etoposide-treated (senescent) cells, Control DMSO = 100, single replicates (SUP FIG 9E)
Experimental: (§1) Equal numbers of control and senescent cells were plated at high density on multiwell plates just before senolytic treatment addition. After treatment, cells were fixed on 0.5% glutaraldehyde (Sigma) and then dried at RT overnight. Then, wells were stained with crystal violet solution for 3 h, washed and dried. Once they were completely dry, the plates were scanned for records. Quantification was performed extracting the staining with 1% acetic acid and measuring the final solution by absorbance at 595 nm. […]
(§2) cells per condition is indicated. (d) Cell survival assay measuring the senolytic effect in lung cancer senescent cells. The panels show a representative crystal violet staining of tissue culture dishes of confluent A549 cells treated with 100 μM etoposide and control A549 cells, all treated with 10 nM oleandrin, ouabain and periplocin, and DMSO as vehicle control for 72 hours as indicated. (e) Graph representing the cell survival by quantification of the crystal violet staining of the experiment described in (d), as described in Methods. Data represented as individual datapoints, and bars and error bars representing the mean ± SEM of 14 independent experiments. Statistical analysis was performed using a one-way ANOVA (Tukey’s test) for multiple comparisons. […]
(§3) Scale bars represent 100 μm. ns = not significant, * = p < 0.05, ** = p < 0.01, *** = p < 0.001, **** = p < 0.0001. Source data are provided as a Source Data file.

[2] = system: NOXA mRNA in IMR90 cells at passage 27; assay: NOXA mRNA expression by RT-qPCR, replicative senescence; details: for NOXA mRNA expression, group mean (Test details, Mean 2): Replicative Senescence (RS) cells, mean of n=3; for NOXA mRNA expression, group mean (Test details, Mean 2) / NOXA mRNA expression: 10 nM; for NOXA mRNA expression: Replicative Senescence cells, relative to Control DMSO = 1, individual replicate values
Experimental: (§4) Total RNA was isolated using RNAeasy kit (Quiagen). cDNA was generated with reverse transcriptase iScript (Bio-Rad). RT-qPCR was performed using SYBR Select Master Mix (Applied Biosystems) in OneStepPlus detection system (Applied Biosystems). Oligos for amplification were: NOXA Fw-[…] and Rv-[…]; b-ACTIN Fw-[…] and Rv-[…]; IL1a Fw-[…] and Rv- […]; IL1b Fw-[…] and Rv- […]; IL8 Fw-[…] and Rv-[…]; p16 Fw-CGGTCGGAGGCCGATCCAG and Rv- […]; p21Fw-[…] and Rv- […].

[3] = system: IMR90 cells at passage 27 (replicative senescence); assay: Cell survival assay using crystal violet staining, replicative senescence; details: for % Cell Survival: Replicative Senescence (RS) cells, individual replicate values, Control DMSO = 100
From the text: IMR90 (CCL-186) human foetal lung fibroblasts and A549 (CCL-185) human lung adenocarcinoma cells were obtained from the American Type Culture Collection (ATCC, Manassas, VA). The cell lines were confirmed to be mycoplasma negative (Lonza MycoAlert, cat #LT07-118). IMR90 ER:RAS is a derivative of IMR90 cells expressing a switchable version of oncogenic H-Ras[84]. IMR90 ER:RAS and A549 cells were maintained in Dulbecco’s Modified Eagle Medium (DMEM, ThermoFisher) supplemented with foetal bovine serum (10%), L-glutamine (2 mM, ThermoFisher), and antibiotic-antimycotic solution (1%, ThermoFisher) and incubated under standard tissue culture conditions (37 °C and 5% CO2). For induction of the senescent phenotype, IMR90-ER:RAS cells were cultured in hydroxytamoxifen (4-OHT) (Sigma) added media at 100 nM final concentration. IMR90 were kept in culture for over 27 passages for replicative senescence. Cells were tested for mycoplasma on a regular basis.
(§5) Equal numbers of control and senescent cells were plated at high density on multiwell plates just before senolytic treatment addition. After treatment, cells were fixed on 0.5% glutaraldehyde (Sigma) and then dried at RT overnight. Then, wells were stained with crystal violet solution for 3 h, washed and dried. Once they were completely dry, the plates were scanned for records. Quantification was performed extracting the staining with 1% acetic acid and measuring the final solution by absorbance at 595 nm.

[4] = system: Na+/K+ ATPase pump (intracellular K+) in IMR90 cells at passage 27; assay: Intracellular K+ determination with Asante staining, replicative senescence; details: for Asante Mean intensity / Asante Mean intensity, group mean (Test details, Mean 2): Replicative Senescence cells; for Asante Mean intensity: individual replicate values; for Asante Mean intensity, group mean (Test details, Mean 2): mean of n=6
Experimental: Cells were cultured for control and senescent phenotype and then treated with the senolytics oleandrin, ouabain and periplocin at 10 nM for 72 h. Asante (Asante Potassium Green-2 AM, abcam ab142806) was added to the culture 30 min before fixation, following manufacturer instructions. DAPI staining was done before image acquisition on Nikon TI2 microscope (20x). Image analysis was performed using ImageJ 1.53k for setting intensity threshold and measuring mean intensity.

[5] = system: caspase 3/7 activity in senescent IMR90 ER:RAS cells; assay: Caspase 3/7 activity assay; design: Caspase 3/7 activity time course (SUP FIG 9F) / Caspase 3/7 activity time course (SUP FIG 9F exp not shown): unit not given here; details: for Caspase 3/7 activity time course (SUP FIG 9F) / Caspase 3/7 activity time course (SUP FIG 9F exp not shown): ER:RAS cells; for Caspase 3/7 activity time course (SUP FIG 9F exp not shown): second experiment, data not shown; for Casp3/7 activity (percentage of green fluorescent cells): ER:RAS, 100 nM 4OHT, 10 nM compound, 35 h
Experimental: IMR90 ER:STOP and IMR90 ER:RAS cells were cultured with 100 nM 4-OHT for 5 days. Cell were then plated in a multiwell plate at high density. Once cells were attached, Caspase 3/7 probe (C10423 Invitrogen) and senolytic drugs, oleandrin, ouabain and periplocin at 10 nM, were added to the media and cultured for 36 h. Time lapse imaging was recorded every hour on a Leica AF6500 microscope (10x). ImageJ 1.53k was used for positive cell counting.

[6] = system: NOXA mRNA in senescent IMR90 ER:RAS cells; assay: NOXA mRNA expression by RT-qPCR, OIS; details: for NOXA mRNA expression: relative to ER:STOP DMSO = 1, individual replicate values
Experimental: as §4

control A549 cells = assay: Cell survival assay using crystal violet staining, TIS, control cells; details: for % Cell Survival: Control (no etoposide) cells, Control DMSO = 100, single replicates (SUP FIG 9E)
Experimental: as §1, §2, §3

[7] = system: A549 cells treated with 100 μM etoposide; assay: Cell survival assay using crystal violet staining, TIS, senescent cells; details: fraction of Control DMSO = 1, n 15
[8] = system: senescent IMR90 ER:RAS cells; assay: Cell survival assay using crystal violet staining, OIS, senescent cells; design: % Cell Survival: concentration or dose not given beside the values; details: for % Cell Survival / Mean (cell survival, Tukey test details): FIG 4B, ER:RAS cells; for % Cell Survival: individual replicate values, ER:STOP DMSO = 100; for Mean (cell survival, Tukey test details): mean of n=12 as fraction of STOP DMSO = 1
Experimental: as §5

[9] = replicative senescence IMR90, 10 nM, 72 h

SMILES | % Cell Survival [1] | NOXA mRNA expression, group mean (Test details, Mean 2) [2] | NOXA mRNA expression [2] | % Cell Survival ([3]; FIG 4C) | Asante Mean intensity [4] | Asante Mean intensity, group mean (Test details, Mean 2) [4] | Caspase 3/7 activity time course (SUP FIG 9F) ([5]; 01:00:00 hours) | Caspase 3/7 activity time course (SUP FIG 9F exp not shown) ([5]; 01:00:00 hours) | Caspase 3/7 activity time course (SUP FIG 9F) ([5]; 05:00:00 hours) | Caspase 3/7 activity time course (SUP FIG 9F exp not shown) ([5]; 05:00:00 hours) | Caspase 3/7 activity time course (SUP FIG 9F) ([5]; 10:00:00 hours) | Caspase 3/7 activity time course (SUP FIG 9F exp not shown) ([5]; 10:00:00 hours) | Caspase 3/7 activity time course (SUP FIG 9F) ([5]; 15:00:00 hours) | Caspase 3/7 activity time course (SUP FIG 9F exp not shown) ([5]; 15:00:00 hours) | Caspase 3/7 activity time course (SUP FIG 9F) ([5]; 20:00:00 hours) | Caspase 3/7 activity time course (SUP FIG 9F exp not shown) ([5]; 20:00:00 hours) | Caspase 3/7 activity time course (SUP FIG 9F) ([5]; 1 day, 1:00:00) | Caspase 3/7 activity time course (SUP FIG 9F exp not shown) ([5]; 1 day, 1:00:00) | Caspase 3/7 activity time course (SUP FIG 9F) ([5]; 1 day, 6:00:00) | Caspase 3/7 activity time course (SUP FIG 9F exp not shown) ([5]; 1 day, 6:00:00) | also measured
CO[C@H]1C[C@H](O[C@H]2CC[C@@]3(C)[C@H](CC[C@@H]4[C@@H]3CC[C@]3(C)[C@@H](C5=CC(=O)OC5)[C@@H](OC(C)=O)C[C@]43O)C2)O[C@@H](C)[C@@H]1O [Oleandrin, oleandrin] | 39.4% and 53.4% and 51.6% and 7.8% and 48.5% and 38.4% and 46.7% and 32.6% and 33.1% and 7.9% and 36.2% and 37.5% and 30.5% and 41.5% | 56.63 | 62.46 and 54.37 and 53.07 | 54.5% and 40.7% and 48% and 38.1% and 50.7% and 43.4% and 31.1% and 55% and 50.3% and 37.4% and 44.9% and 40.3% | 145.1 and 146.6 and 146 and 145.5 and 145.6 | 145.7 | 0.9 | 0.75 | 1.1 | 1.25 | 2.3 | 3.9 | 3 | 7.9 | 4 | 13.8 | 7.8 | 16.55 | 11 | 18.55 | cellular content in senescent cultures (crystal violet), in words ([1]; A549 TIS with etoposide, 10 nM, 72 h): significant reduction in cellular content; NOXA mRNA expression, in words ([2]; replicative senescence IMR90, 10 nM (Fig. 5d)): significant increase; Mean (cell survival, Tukey test details) ([3]; FIG 4C, RS cells, mean of n=12 as fraction of Young DMSO = 1): 0.4453; cellular content in senescent cultures (crystal violet), in words [3, 9]: significant reduction in cellular content; K+ intracellular concentration, in words [4, 9]: significantly reduced; Caspase 3/7 activity time course (SUP FIG 9F) ([5]; 1 day, 11:00:00): 13.5; Caspase 3/7 activity time course (SUP FIG 9F exp not shown) ([5]; 1 day, 11:00:00): 19.65; Casp3/7 activity (percentage of green fluorescent cells) [5]: 92.2%; NOXA mRNA expression, group mean (Test details, Mean 2) ([6]; ER:RAS cells, 10 nM, mean of n=4): 49.05; NOXA mRNA expression ([6]; ER:RAS cells, 10 nM): 43.71 and 48.67 and 52.89 and 50.91; NOXA mRNA expression, in words ([6]; OIS IMR90 ER:RAS, 10 nM (Fig. 5c)): significant increase; cellular density in non-senescent control cultures, in words (control A549 cells; A549 control, 10 nM, 72 h): unchanged; % Cell Survival (control A549 cells): 99.6% and 145% and 133.8% and 119.3% and 135.9% and 111.6% and 113.5% and 93% and 97.3% and 116% and 109.5% and 116.3% and 95.4% and 109%; Cell survival, mean (Test details, Mean 2) [7]: 0.3827; % Cell Survival [8]: 37.9% and 39.1% and 12.2% and 30.1% and 44.2% and 34.9% and 40.3% and 12.5% and 41% and 10.4% and 36% and 34.1%; Mean (cell survival, Tukey test details) [8]: 0.3106; cytotoxic activity / cellular content (crystal violet), in words ([8]; IMR90-ER:RAS cells undergoing OIS, 10 nM, 72 h): significant drop in cellular content
C[C@@H]1O[C@@H](O[C@H]2C[C@@H](O)[C@]3(CO)[C@H]4[C@H](O)C[C@]5(C)[C@@H](C6=CC(=O)OC6)CC[C@]5(O)[C@@H]4CC[C@]3(O)C2)[C@H](O)[C@H](O)[C@H]1O [Ouabain, ouabain, reference compound] | 83.2% and 99.9% and 99.3% and 62.7% and 92.6% and 102.5% and 88.1% and 123.1% and 123.9% and 68.2% and 105.6% and 95.4% and 114.5% and 91.7% | 15.44 | 23.42 and 22.01 and 0.88 | 94.8% and 97.2% and 95.8% and 90.6% and 106.9% and 98.6% and 108.7% and 109.7% and 103.6% and 106.2% and 99.7% | 151.8 and 154.5 and 152.7 and 153 and 150.8 and 153.1 | 152.7 | 1.9 | 0.1 | 1.9 | 0.95 | 2.6 | 1.45 | 2.6 | 1.55 | 3 | 2.7 | 4 | 4.6 | 3.9 | 7.55 | Caspase 3/7 activity time course (SUP FIG 9F) ([5]; 1 day, 11:00:00): 3.9; Caspase 3/7 activity time course (SUP FIG 9F exp not shown) ([5]; 1 day, 11:00:00): 8.25; Casp3/7 activity (percentage of green fluorescent cells) [5]: 6.4%; NOXA mRNA expression ([6]; ER:RAS cells, 10 nM): 4.99 and 3.07 and 6.94 and 6.96; % Cell Survival (control A549 cells): 87.7% and 109.8% and 97.7% and 103.7% and 127.7% and 98.4% and 119.9% and 122.1% and 126.3% and 124.6% and 125% and 96.4%; Cell survival, mean (Test details, Mean 2) [7]: 0.9058; cytotoxic activity / cellular content (crystal violet), in words [8]: no cytotoxic activity; % Cell Survival [8]: 99% and 102.3% and 88.5% and 93% and 111.6% and 79.7% and 87.5% and 77.4% and 104.8% and 84.4% and 78.3% and 72%; Mean (cell survival, Tukey test details) [8]: 0.8988
